{"source": "patent US9156827B2", "about": "“Anticancer agent” (THE UNIVERSITY OF TOKYO, priority 2010, dated 2015)", "target": "pim-1 kinase (Homo sapiens, UniProt P11309)", "sequence (P11309 whole entry)": "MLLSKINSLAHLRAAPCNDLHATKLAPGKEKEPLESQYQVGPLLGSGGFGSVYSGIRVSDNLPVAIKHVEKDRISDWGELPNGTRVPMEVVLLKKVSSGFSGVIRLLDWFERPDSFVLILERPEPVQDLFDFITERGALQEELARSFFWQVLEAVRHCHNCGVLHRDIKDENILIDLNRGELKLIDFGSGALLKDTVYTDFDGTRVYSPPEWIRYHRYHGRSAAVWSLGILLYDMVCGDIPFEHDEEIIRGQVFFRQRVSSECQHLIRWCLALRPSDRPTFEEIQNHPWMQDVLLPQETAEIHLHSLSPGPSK", "assay": "Measurement of pim-1 kinase inhibitory activity (fluorescent substrate peptide, capillary electrophoresis)", "format": "biochemical", "settings": "0.1 μM of each compound, 30 μM ATP, 1.5 μM substrate peptide, room temperature 2 hours", "description": "Measurement of Pim-1 Kinase Inhibitory Activity\nThe result of the reaction was determined by quantifying the substrate and the phosphorylated reaction product separated by capillary electrophoresis based on difference in charges of the substances (EZ Reader II, Caliper Life Sciences, was used).", "note": "Where a name gives a salt, the structure may show the parent alone.", "data": [{"smiles": "CN(C)CCCN1CCN(Cc2c(O)ccc3c2O/C(=C\\c2c[nH]c4ccccc24)C3=O)CC1", "note": "[Compound A1, (Z)-2-[(1H-Indol-3-yl)methylene]-7-({4-[3-(dimethylamino)propyl]piperazin-1-yl}methyl)-6-hydroxybenzofuran-3(2H)-one]", "values": [{"measurement": "inhibition at 0.1 µM", "setting": "Table 1", "result": 51, "unit": "%"}]}, {"smiles": "O=C1/C(=C/c2c[nH]c3ccccc23)Oc2c1ccc(O)c2CN1CCSCC1", "note": "[Compound A4, (Z)-2-[(1H-Indol-3-yl)methylene]-6-hydroxy-7-(thiomorpholinomethyl)benzofuran-3(2H)-one]", "values": [{"measurement": "inhibition at 0.1 µM", "setting": "Table 1", "result": 19, "unit": "%"}]}, {"smiles": "O=C1/C(=C/c2c[nH]c3ccccc23)Oc2c1ccc(O)c2CN1CCC(O)CC1", "note": "[Compound A6, (Z)-2-[(1H-Indol-3-yl)methylene]-6-hydroxy-7-[(4-hydroxypiperidin-1-yl)methyl]benzofuran-3(2H)-one]", "values": [{"measurement": "inhibition at 0.1 µM", "setting": "Table 1", "result": 15, "unit": "%"}]}, {"smiles": "CN(C)CCCN(C)Cc1c(O)ccc2c1O/C(=C\\c1c[nH]c3ccccc13)C2=O", "note": "[Compound A8, (Z)-2-[(1H-Indol-3-yl)methylene]-7-({[3-(dimethylamino)propyl](methyl)amino}methyl)-6-hydroxybenzofuran-3(2H)-one]", "values": [{"measurement": "inhibition at 0.1 µM", "setting": "Table 1", "result": 20, "unit": "%"}]}, {"smiles": "O=C1/C(=C/c2c[nH]c3ccccc23)Oc2c1cc(-c1ccccc1)c(O)c2CN1CCNCC1", "note": "[Compound A13, (Z)-2-[(1H-Indol-3-yl)methylene]-6-hydroxy-5-phenyl-7-(piperazin-1-ylmethyl)benzofuran-3(2H)-one dihydrochloride]", "values": [{"measurement": "inhibition at 0.1 µM", "setting": "Table 1", "result": 71, "unit": "%"}]}, {"smiles": "COc1cc(CN2CCNCC2)c2c(c1)C(=O)/C(=C/c1c[nH]c3ccccc13)O2", "note": "[Compound A14, (Z)-2-[(1H-Indol-3-yl)methylene]-5-methoxy-7-(piperazin-1-ylmethyl)benzofuran-3(2H)-one dihydrochloride]", "values": [{"measurement": "inhibition at 0.1 µM", "setting": "Table 1", "result": 87, "unit": "%"}]}, {"smiles": "O=C1/C(=C/c2c[nH]c3ccc(OCCN4CCOCC4)cc23)Oc2c1ccc(O)c2CN1CCNCC1", "note": "[Compound A19, (Z)-6-Hydroxy-2-{[5-(2-morpholinoethoxy)-1H-indol-3-yl]methylene}-7-(piperazin-1-ylmethyl)benzofuran-3(2H)-one dihydrochloride trihydrochloride]", "values": [{"measurement": "inhibition at 0.1 µM", "setting": "Table 1", "result": 62, "unit": "%"}]}, {"smiles": "CC(=O)NCc1ccc2[nH]cc(/C=C3\\Oc4c(ccc(O)c4CN4CCNCC4)C3=O)c2c1", "note": "[Compound A20, (Z)—N-[(3-{[6-Hydroxy-3-oxo-7-(piperazin-1-ylmethyl)benzofuran-2(3H)-ylidene]methyl}-1H-indol-5-yl)methyl]acetamide dihydrochloride]", "values": [{"measurement": "inhibition at 0.1 µM", "setting": "Table 1", "result": 62, "unit": "%"}]}, {"smiles": "O=C1/C(=C/c2c[nH]c3ccc(Cl)cc23)Oc2c1ccc(O)c2CN1CCNCC1", "note": "[Compound A21, (Z)-2-[(5-Chloro-1H-indol-3-yl)methylene]-6-hydroxy-7-(piperazin-1-ylmethyl)benzofuran-3(2H)-one dihydrochloride]", "values": [{"measurement": "inhibition at 0.1 µM", "setting": "Table 1", "result": 94, "unit": "%"}]}, {"smiles": "COC(=O)c1ccc2c(/C=C3\\Oc4c(ccc(O)c4CN4CCNCC4)C3=O)c[nH]c2c1", "note": "[Compound A23, Methyl (Z)-3-{[6-hydroxy-3-oxo-7-(piperazin-1-ylmethyl)benzofuran-2(3H)-ylidene]methyl}-1H-indole-6-carboxylate]", "values": [{"measurement": "inhibition at 0.1 µM", "setting": "Table 1", "result": 56, "unit": "%"}]}, {"smiles": "O=C1/C(=C/c2c[nH]c3cc([N+](=O)[O-])ccc23)Oc2c1ccc(O)c2CN1CCNCC1", "note": "[Compound A24, (Z)-6-Hydroxy-2-[(6-nitro-1H-indol-3-yl)methylene]-7-(piperazin-1-ylmethyl)benzofuran-3(2H)-one dihydrochloride]", "values": [{"measurement": "inhibition at 0.1 µM", "setting": "Table 1", "result": 60, "unit": "%"}]}, {"smiles": "O=C1/C(=C/c2c[nH]c3c([N+](=O)[O-])cccc23)Oc2c1ccc(O)c2CN1CCNCC1", "note": "[Compound A27, (Z)-6-Hydroxy-2-[(7-nitro-1H-indol-3-yl)methylene]-7-(piperazin-1-ylmethyl)benzofuran-3(2H)-one dihydrochloride]", "values": [{"measurement": "inhibition at 0.1 µM", "setting": "Table 1", "result": 29, "unit": "%"}]}, {"smiles": "CNCc1cccc2c(/C=C3\\Oc4c(ccc(O)c4CN4CCNCC4)C3=O)c[nH]c12", "note": "[Compound A28, (Z)-6-Hydroxy-2-({7-[(methylamino)methyl]-1H-indol-3-yl}methylene)-7-(piperazin-1-ylmethyl)benzofuran-3(2H)-one trihydrochloride]", "values": [{"measurement": "inhibition at 0.1 µM", "setting": "Table 1", "result": 10, "unit": "%"}]}, {"smiles": "Cc1ccc(S(=O)(=O)n2cc(/C=C3\\Oc4c(ccc(O)c4CN4CCN(C)CC4)C3=O)c3ccccc32)cc1", "note": "[Compound A31, (Z)-6-Hydroxy-7-[(4-methylpiperazin-1-yl)methyl]-2-[(1-tosyl-1H-indol-3-yl)methylene]benzofuran-3(2H)-one]", "values": [{"measurement": "inhibition at 0.1 µM", "setting": "Table 1", "result": 47, "unit": "%"}]}, {"smiles": "COc1ccc2c(c1CN1CCOCC1)O/C(=C\\c1c[nH]c3ccccc13)C2=O", "note": "[Compound A41, (Z)-2-[(1H-Indol-3-yl)methylene]-6-methoxy-7-(morpholinomethyl)benzofuran-3(2H)-one]", "values": [{"measurement": "inhibition at 0.1 µM", "setting": "Table 1", "result": 40, "unit": "%"}]}, {"smiles": "O=C1/C(=C/c2c[nH]c3ncccc23)Oc2c1ccc(O)c2CN1CCNCC1", "note": "[Compound A42, (Z)-2-[(1H-Pyrrolo[2,3-b]pyridin-3-yl)methylene]-6-hydroxy-7-(piperazin-1-ylmethyl)benzofuran-3(2H)-one trihydrochloride]", "values": [{"measurement": "inhibition at 0.1 µM", "setting": "Table 1", "result": 96, "unit": "%"}]}, {"smiles": "CN1CCN(Cc2c(O)ccc3c2O/C(=C\\c2c[nH]c4ncccc24)C3=O)CC1", "note": "[Compound A43, (Z)-2-[(1H-Pyrrolo[2,3-b]pyridin-3-yl)methylene]-6-hydroxy-7-[(4-methylpiperazin-1-yl)methyl]benzofuran-3(2H)-one]", "values": [{"measurement": "inhibition at 0.1 µM", "setting": "Table 1", "result": 56, "unit": "%"}]}, {"smiles": "O=C1/C(=C/c2c[nH]c3nc(Cl)ccc23)Oc2c1ccc(O)c2CN1CCNCC1", "note": "[Compound A46, (Z)-2-[(6-Chloro-1H-pyrrolo[2,3-b]pyridin-3-yl)methylene]-6-hydroxy-7-(piperazin-1-ylmethyl)benzofuran-3(2H)-one trihydrochloride]", "values": [{"measurement": "inhibition at 0.1 µM", "setting": "Table 1", "result": 99, "unit": "%"}]}, {"smiles": "O=C1/C(=C/c2c[nH]c3nc(Br)ccc23)Oc2c1ccc(O)c2CN1CCNCC1", "note": "[Compound A47, (Z)-2-[(6-Bromo-1H-pyrrolo[2,3-b]pyridin-3-yl)methylene]-6-hydroxy-7-(piperazin-1-ylmethyl)benzofuran-3(2H)-one trihydrochloride]", "values": [{"measurement": "inhibition at 0.1 µM", "setting": "Table 1", "result": 98, "unit": "%"}]}, {"smiles": "Cc1ccc2c(/C=C3\\Oc4c(ccc(O)c4CN4CCNCC4)C3=O)c[nH]c2n1", "note": "[Compound A48, (Z)-6-Hydroxy-2-[(6-methyl-1H-pyrrolo[2,3-b]pyridin-3-yl)methylene]-7-(piperazin-1-ylmethyl)benzofuran-3(2H)-one trihydrochloride]", "values": [{"measurement": "inhibition at 0.1 µM", "setting": "Table 1", "result": 97, "unit": "%"}]}, {"smiles": "O=C1/C(=C/c2c[nH]c3nc(-c4ccccc4)ccc23)Oc2c1ccc(O)c2CN1CCNCC1", "note": "[Compound A49, (Z)-6-Hydroxy-2-[(6-phenyl-1H-pyrrolo[2,3-b]pyridin-3-yl)methylene]-7-(piperazin-1-ylmethyl)benzofuran-3(2H)-one trihydrochloride]", "values": [{"measurement": "inhibition at 0.1 µM", "setting": "Table 1", "result": 16, "unit": "%"}]}, {"smiles": "C#Cc1ccc2c(/C=C3\\Oc4c(ccc(O)c4CN4CCNCC4)C3=O)c[nH]c2n1", "note": "[Compound A50, (Z)-2-[(6-Ethynyl-1H-pyrrolo[2,3-b]pyridin-3-yl)methylene]-6-hydroxy-7-(piperazin-1-ylmethyl)benzofuran-3(2H)-one trihydrochloride]", "values": [{"measurement": "inhibition at 0.1 µM", "setting": "Table 1", "result": 94, "unit": "%"}]}, {"smiles": "Cc1ccc2c(/C=C3\\Oc4c(cc(Cl)c(O)c4CN4CCNCC4)C3=O)c[nH]c2n1", "note": "[Compound A51, (Z)-5-Chloro-6-hydroxy-2-[(6-methyl-1H-pyrrolo[2,3-b]pyridin-3-yl)methylene]-7-(piperazin-1-ylmethyl)benzofuran-3(2H)-one trihydrochloride]", "values": [{"measurement": "inhibition at 0.1 µM", "setting": "Table 1", "result": 94, "unit": "%"}]}, {"smiles": "O=C1/C(=C/c2c[nH]c3ncc(Br)cc23)Oc2c1ccc(O)c2CN1CCNCC1", "note": "[Compound A52, (Z)-2-[(5-Bromo-1H-pyrrolo[2,3-b]pyridin-3-yl)methylene]-6-hydroxy-7-(piperazin-1-ylmethyl)benzofuran-3(2H)-one trihydrochloride]", "values": [{"measurement": "inhibition at 0.1 µM", "setting": "Table 1", "result": 101, "unit": "%"}]}, {"smiles": "COc1ccc2c(c1CN1CCNCC1)O/C(=C\\c1c[nH]c3ncccc13)C2=O", "note": "[Compound A53, (Z)-2-[(1H-Pyrrolo[2,3-b]pyridin-3-yl)methylene]-6-methoxy-7-(piperazin-1-ylmethyl)benzofuran-3(2H)-one]", "values": [{"measurement": "inhibition at 0.1 µM", "setting": "Table 1", "result": 98, "unit": "%"}]}, {"smiles": "COc1ccc2c(c1CN1CCOCC1)O/C(=C\\c1c[nH]c3ncccc13)C2=O", "note": "[Compound A54, (Z)-2-[(1H-Pyrrolo[2,3-b]pyridin-3-yl)methylene]-6-methoxy-7-(morpholinomethyl)benzofuran-3(2H)-one]", "values": [{"measurement": "inhibition at 0.1 µM", "setting": "Table 1", "result": 72, "unit": "%"}]}, {"smiles": "O=C1/C(=C/c2n[nH]c3ccccc23)Oc2c1ccc(O)c2CN1CCNCC1", "note": "[Compound B1, (Z)-2-[(1H-Indazol-3-yl)methylene]-6-hydroxy-7-(piperazin-1-ylmethyl)benzofuran-3(2H)-one]", "values": [{"measurement": "inhibition at 0.1 µM", "setting": "Table 2", "result": 88, "unit": "%"}]}, {"smiles": "C[C@@H]1CN(Cc2c(O)ccc3c2O/C(=C\\c2n[nH]c4ccccc24)C3=O)C[C@H](C)N1", "note": "[Compound B2]", "values": [{"measurement": "Pim-1 kinase inhibitory activity (%)", "setting": "Table 2", "result": 61, "unit": "%"}]}, {"smiles": "CN1CCN(Cc2c(O)ccc3c2O/C(=C\\c2n[nH]c4ccccc24)C3=O)CC1", "note": "[Compound B4, (Z)-2-[(1H-Indazol-3-yl)methylene]-6-hydroxy-7-[(4-methylpiperazin-1-yl)methyl]benzofuran-3(2H)-one]", "values": [{"measurement": "inhibition at 0.1 µM", "setting": "Table 2", "result": 41, "unit": "%"}]}, {"smiles": "O=C1/C(=C/c2n[nH]c3ccccc23)Oc2c1ccc(O)c2CN1CCOCC1", "note": "[Compound B5, (Z)-2-[(1H-Indazol-3-yl)methylene]-6-hydroxy-7-(morpholinomethyl)benzofuran-3(2H)-one]", "values": [{"measurement": "inhibition at 0.1 µM", "setting": "Table 2", "result": 22, "unit": "%"}]}, {"smiles": "O=C1CN(Cc2c(O)ccc3c2O/C(=C\\c2n[nH]c4ccccc24)C3=O)CCN1", "note": "[Compound B6, (Z)-4-({2-[(1H-Indazol-3-yl)methylene]-6-hydroxy-3-oxo-2,3-dihydrobenzofuran-7-yl}methyl)piperazin-2-one]", "values": [{"measurement": "inhibition at 0.1 µM", "setting": "Table 2", "result": 49, "unit": "%"}]}, {"smiles": "O=C1/C(=C/c2n[nH]c3ccc(F)cc23)Oc2c1ccc(O)c2CN1CCNCC1", "note": "[Compound B8, (Z)-6-Hydroxy-7-(piperazin-1-ylmethyl)-2-[(5-fluoro-1H-indazol-3-yl)methylene]benzofuran-3(2H)-one]", "values": [{"measurement": "inhibition at 0.1 µM", "setting": "Table 2", "result": 81, "unit": "%"}]}, {"smiles": "O=C1/C(=C/c2n[nH]c3ccc(Cl)cc23)Oc2c1ccc(O)c2CN1CCNCC1", "note": "[Compound B9, (Z)-6-Hydroxy-7-(piperazin-1-ylmethyl)-2-[(5-chloro-1H-indazol-3-yl)methylene]benzofuran-3(2H)-one]", "values": [{"measurement": "inhibition at 0.1 µM", "setting": "Table 2", "result": 93, "unit": "%"}]}]}
